Converted amounts (≈) assume the structure as drawn.
Legend:
[1] = molecular target: T1, Human immunodeficiency virus type 1 integrase (Human immunodeficiency virus 1, UniProt Q7ZJM1); test: Inhibition of recombinant HIV-1 integrase 3'-processing activity using 32P 5' end-labeled linear 21'mer as substrate preincubated for 30 mins prior to substrate challenge by phosphorimaging analysis
[2] = molecular target: T1, Human immunodeficiency virus type 1 integrase; test: Inhibition of recombinant HIV-1 integrase strand transfer activity using 32P 5' end-labeled linear 21'mer as substrate preincubated for 30 mins prior to substrate challenge by phosphorimaging analysis
[3] = test system: Human immunodeficiency virus 1; test: Antiviral activity against HIV-1 3B infected in human C8166 cells assessed as inhibition of virus-induced cytopathogenicity by measuring syncytial cell number after 3 days by inverted microscopic analysis; type: functional, organism-based; conditions: Human immunodeficiency virus 1, 3B, C8166, 72 h
[4] = Cytotoxicity against human C8166 cells assessed as inhibition of cell proliferation after 72 hrs by MTT assay; type: cell-based
[5] = Therapeutic index, ratio of CC50 for human C8166 cells to EC50 for HIV-1 3B infected in human C8166 cells; type: cell-based; conditions: HIV-1 3B infected C8166 cells, read-out: Ratio CC50/EC50
[6] = molecular target: T1, Human immunodeficiency virus type 1 integrase; test: Inhibition of His6-tagged HIV-1 integrase assessed as decrease in integrase-Flag-LEDGF/p75 interaction preincubated with enzyme for 30 mins followed by addition of Flag-LEDGF/p75 for 1 hr by AlphaScreen assay

T1 sequence (Q7ZJM1 whole entry): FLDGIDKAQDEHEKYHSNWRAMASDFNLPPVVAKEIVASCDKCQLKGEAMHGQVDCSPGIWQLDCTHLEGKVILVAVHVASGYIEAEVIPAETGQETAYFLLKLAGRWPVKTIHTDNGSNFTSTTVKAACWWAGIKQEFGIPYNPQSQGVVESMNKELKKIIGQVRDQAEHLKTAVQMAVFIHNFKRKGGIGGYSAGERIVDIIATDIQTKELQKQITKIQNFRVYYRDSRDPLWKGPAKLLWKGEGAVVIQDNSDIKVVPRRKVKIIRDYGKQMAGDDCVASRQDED

Row | Compound | IC50 [1] [µM] | IC50 [2] [µM] | EC50 [3] [µg/mL] | CC50 at 72 h [4] [µg/mL] | selectivity ratio [5] | IC50 [6] [nM]
1 | O=c1c(O)c(-c2ccc(OCc3ccc(F)cc3)c(O)c2)oc2cc(O)cc(O)c12 | > 20 | > 20 | 4.1 (≈ 9.99 µM) | 23.4 (≈ 57 µM) | 6 | 1400
2 | O=c1c(O)c(-c2ccc(O)c(O)c2)oc2cc(OCc3ccc(F)cc3)cc(O)c12 | 20 | 4 | > 5.68 | 5.68 (≈ 13.8 µM) | – | 940
3 | O=C1C[C@@H](c2ccc(O)cc2)Oc2cc(OCc3ccc(F)cc3)cc(O)c21 | > 100 | > 100 | 2.06 (≈ 5.42 µM) | 11.5 (≈ 30.2 µM) | 6 | –
4 | O=c1cc(-c2ccccc2)oc2cc(O)c(O)c(O)c12 [BAICALEIN] | – | – | 1.67 (≈ 6.18 µM) | 30.3 (≈ 112 µM) | – | –
5 | O=c1cc(-c2ccc(O)cc2)oc2cc(O)cc(O)c12 [APIGENIN] | > 20 | > 20 | 4.46 (≈ 16.5 µM) | 17.2 (≈ 63.6 µM) | 4 | 1500
6 | O=c1c(-c2ccc(O)cc2)coc2cc(O)cc(O)c12 [GENISTEIN] | > 20 | > 20 | 13.9 (≈ 51.4 µM) | 36.2 (≈ 134 µM) | 3 | 1100
7 | O=c1cc(-c2ccc(O)c(O)c2)oc2cc(O)cc(O)c12 [LUTEOLIN] | > 20 | 8.9 | 2.48 (≈ 8.66 µM) | 17.9 (≈ 62.5 µM) | 7 | 450
8 | O=c1c(OCc2ccc(F)cc2)c(-c2ccc(O)c(O)c2)oc2cc(O)cc(O)c12 | > 20 | > 20 | 1.95 (≈ 4.75 µM) | 22.5 (≈ 54.8 µM) | 12 | 380
9 | O=c1cc(-c2ccc(O)c(O)c2)oc2cc(OCc3ccc(F)cc3)cc(O)c12 | > 20 | > 20 | 7.37 (≈ 18.7 µM) | 16.2 (≈ 41.1 µM) | 2 | –
10 | CC(C)(C)Oc1cc2oc(-c3ccccc3)cc(=O)c2c(O)c1O | > 100 | > 100 | 8.45 (≈ 25.9 µM) | 40.5 (≈ 124 µM) | 5 | > 20000
11 | O=c1c(-c2ccc(O)cc2)coc2cc(N3CCOCC3)cc(O)c12 | > 20 | > 20 | 0.826 (≈ 2.43 µM) | > 200 | > 242 | 1700
12 | O=c1cc(-c2ccccc2)oc2cc(O)cc(O)c12 [CHRYSIN] | > 20 | > 20 | 13.4 (≈ 52.7 µM) | 110 (≈ 433 µM) | 8 | 1400
13 | O=c1cc(-c2ccc(O)cc2)oc2cc(OCc3ccc(F)cc3)cc(O)c12 | 80 | 35 | 10.7 (≈ 28.3 µM) | 16.8 (≈ 44.4 µM) | 1.6 | > 20000
14 | CC(C)(C)Oc1cc(O)c2c(=O)c(-c3ccc(O)cc3)coc2c1 | > 100 | 70 | > 47.7 | 47.7 (≈ 146 µM) | – | > 20000
15 | O=c1cc(-c2ccccc2)oc2cc(OCc3ccc(F)cc3)c(O)c(O)c12 | > 20 | 7 | 3.04 (≈ 8.03 µM) | 5.8 (≈ 15.3 µM) | 2 | > 20000
16 | CC(C)(C)Oc1cc(O)c2c(c1)O[C@H](c1ccc(O)cc1)CC2=O | > 100 | > 100 | 3.05 (≈ 9.29 µM) | 25.4 (≈ 77.4 µM) | 8 | > 20000
17 | CC(C)(C)Oc1cc(O)c2c(=O)cc(-c3ccc(O)cc3)oc2c1 | > 20 | > 20 | 3.2 (≈ 9.81 µM) | 25 (≈ 76.6 µM) | 8 | > 20000
18 | O=c1c(O)c(-c2ccc(O)c(O)c2)oc2cc(O)cc(OCc3ccc(F)cc3)c12 | > 20 | 7.6 | 4.54 (≈ 11.1 µM) | 24 (≈ 58.5 µM) | 5 | 1800
19 | O=c1cc(-c2ccc(O)c(O)c2)oc2cc(N3CCOCC3)cc(O)c12 | > 20 | > 20 | 2.21 (≈ 6.22 µM) | 63.6 (≈ 179 µM) | 29 | 1600
20 | CC(C)(C)Oc1cc(O)c2c(=O)cc(-c3ccccc3)oc2c1 | > 100 | 50 | 12.1 (≈ 39 µM) | 61.2 (≈ 197 µM) | 5 | > 20000
21 | O=c1c(-c2ccc(O)cc2)coc2cc(OCc3ccc(F)cc3)cc(O)c12 | > 100 | 80 | 11 (≈ 29.1 µM) | > 200 | > 18 | > 20000
22 | O=C1C[C@@H](c2ccc(O)cc2)Oc2cc(O)cc(O)c21 [NARINGENIN] | > 20 | > 20 | 9.47 (≈ 34.8 µM) | 142 (≈ 520 µM) | 15 | 1700
23 | O=c1c(O)c(-c2ccc(O)c(O)c2)oc2cc(O)cc(O)c12 [QUERCETIN] | > 20 | 8 | 2.05 (≈ 6.78 µM) | 105 (≈ 347 µM) | 44 | 600
24 | O=c1cc(-c2ccc(O)cc2)oc2cc(N3CCOCC3)cc(O)c12 | > 20 | > 20 | 68.4 (≈ 202 µM) | 105 (≈ 311 µM) | 1.5 | 1700
25 | O=c1c(O)c(-c2ccc(O)c(O)c2)oc2cc(N3CCOCC3)cc(O)c12 | > 20 | > 20 | 5.05 (≈ 13.6 µM) | 24.7 (≈ 66.5 µM) | 5 | 970
26 | O=c1c(O)c(-c2ccc(O)c(OCc3ccc(F)cc3)c2)oc2cc(O)cc(O)c12 | > 20 | > 20 | 0.47 (≈ 1.15 µM) | 23.8 (≈ 58 µM) | 51 | 1800
27 | O=c1cc(-c2ccccc2)oc2cc(N3CCOCC3)cc(O)c12 | > 20 | > 20 | > 200 | > 200 | – | > 20000
28 | O=c1cc(-c2ccccc2)oc2cc(OCc3ccc(F)cc3)cc(O)c12 | > 20 | > 20 | > 8.35 | 8.35 (≈ 23 µM) | – | > 20000
29 | O=c1c(O)c(-c2ccc3c(c2)OC(c2ccccc2)(c2ccccc2)O3)oc2cc(O)cc(O)c12 | > 20 | > 20 | – | – | – | > 20000
